Measurements from patent US12415939B2, “Nano-adhesive and surface primer compound and use thereof” (The Regents of the University of California, priority 2015, dated 2025).

Legend:
[1] = Cyclic voltammetry of catechol oxidation; assay type: physicochemical; conditions: DI water, scan rate 1 mV s−1, Ag/AgCl reference
Protocol: (§1) Cyclic voltammetry was performed on a Versastat 3 potentiostat from Ametek Co. These analyses were carried out using a three-electrode cell: a Pt wire as the counter electrode, an Ag/AgCl reference electrode, and a Carbon paste electrode (CPE) served as the working electrode. CPE is the best choice for adhesive materials because of its ability to be completely polished before each experiment. Catechol auto-oxidation was avoided by performing all electrochemical experiments with degassed deionized water in a glove bag under argon. Scan rate 1 mV s-1 was used for all experiments. CV of 5 mM synthesized polymers and 5 mM methyl catechol, a simple catechol-containing compound, were compared. Oxidation of Catechol carrying molecules occurred at more positive potentials than methyl catechol, indicating the unique structure of the dispersions provide shielding effects that stabilized catechol groups (FIG. 3).
Cyclic voltammetry was performed on a Versastat 3 potentiostat from Ametek Co. (Berwyn, PA). These analyses were carried out using a three-electrode cell: a Pt wire as the counter electrode, an Ag/AgCl reference electrode, and a Carbon paste electrode (CPE) served as the working electrode. CPE is the best choice for adhesive materials because of its ability to be completely polished before each experiment.
as §1, with “s^−1” for “s-1”, “molecules” for “polymers”, “groups. Z-Cat-Ben with an oxidation peak at 840 mV is more resistant to oxidation than the other species” for “groups”, “42).” for “3).”

[2] = Lap shear test of cured PMA resin on primed tooth enamel; parameters: species or system human
Protocol: 1 wt % primer solution was spread on mica, glass, tooth enamel, or a silicon wafer and incubated for 1 min, followed by thorough washing with methanol (for MDP, P1-P3) or DMSO (for P4) and drying by flowing nitrogen. The surfaces were exposed to a basic aqueous solution (pH 9, using sodium hydroxide), incubated for 1 min, and drying by flowing nitrogen (see FIG. 52). The methacrylic comonomer blend (Bis-GMA, TEGDMA, DMAEMA and CQ) was packed in a gelatin capsule (size #4, 5-mm diameter, Torpac Inc.) and placed up on top of the primer-treated substrates. The comonomer blend was cured (or crosslinked) for 1 min using a portable dental curing lamp (Foshan Liang Ya Dental Co., LY-A180, 420-480 nm, 1200-2000 mW·cm^−2) (see FIG. 53). Uniaxial compression was applied to the capsule at a rate of 0.05 inch min^−1 using a materials testing system (MTS Bionix 200) until the capsules are separated from the substrate. The lap shear fracture measurements were repeated at least 10 times for each condition.

[3] = SFA adhesion of cured PMA resin between primer-treated mica surfaces
Protocol: Atomically-smooth muscovite mica sheets were freshly cleaved (thickness of 2-5 μm) and attached on another large freshly cleaved mica backing sheet under a laminar flow hood and placed in a desiccator for clean storage. To ensure use of a fresh surface for each experiment, mica was peeled away from the backing sheet and glued on cylindrical disks using an epoxy glue (EPON 1004 F® from Exxon Chemicals). In each experiment, the mica surfaces were treated with one of the primer solutions, as described for the lap shear experiments, and then mounted in the SFA in a cross cylindrical geometry. In contrast to typical SFA experiments, which use an interferometric method to calculate the disk-disk separation distances and thus the interaction forces, in the SFA used here for adhesion testing, the disk separations were directly measured using semiconductor strain-gauged double cantilever springs (k=1000-10000 N/m)(see FIG. 67). After separating the surfaces, 100 […]1 of comonomer blend was injected between the two surfaces. Then, ˜600 mN of load was applied, followed by visible light curing for 1 min using the portable dental curing lamp (see FIG. 54G). Adhesion strength of cured polymer toward the mica was measured by detaching (unloading) two surfaces. All loading and unloading were performed using a coarse micrometer at the velocity of […]. The SFA measurements were repeated at least 5 times for each condition.

[4] = QCM-D adsorption of primers; assay type: physicochemical; conditions: for surface concentration of adsorbed layer: Sauerbrey, after rinsing
Protocol: A ‘static cell’ (often called ‘Open Module’) QCM-D (Q-Sense, Biolin Scientific) was employed to quantitatively evaluate the adsorption of each primer onto SiO2 surface using a quartz sensor (QSX 303, Biolin Scientific). Changes in resonance frequency (ΔF) and dissipation (ΔD) of the SiO2 were recorded and used to measure the adsorbed mass and layer viscoelasticity, respectively, of the primer deposited on the sensor. In detail, pure solvent (100 μl) was dropped onto the sensor and equilibrated for ˜20-30 min. Then, 2 wt % primer solution (100 μl) was dropped onto the sensor (this is labeled “Solution Drop-in” in FIG. 51) and equilibrated until the frequency and dissipation signals stabilized. To remove unbound primers, the sensor was rinsed with solvents (this is labeled “Solvent Rinsing” in FIG. 51) and equilibrated until frequency and dissipation signals stabilized.
Mass loss of P3 and P4 during the rinsing was negligible compared to P2 which lost 60% of initial mass, indicating outstanding adsorption efficiency of catechol-containing primers on SiO2 surfaces even compared to mussel foot protein adsorption (˜30% loss of mfp-3s^3). The priming thickness of P4 estimated by QCM-D is ˜3.1 nm which agrees with the average height of AFM images (˜3.5 nm), assuming that QCM-D measures the average thickness of a uniform layer. The smaller average thickness of P4 (˜3.1 nm) compared to the molecular contour length (˜4.8 nm) may be attributed to the flexible alkyl spacer in P4. The possibility of a softer, more flexible layer with P4 is supported by a higher change in dissipation (ΔD) compared to other primers.

[5] = Surface forces apparatus (SFA) cohesion/adhesion between thin films on mica; assay type: physicochemical; conditions: for cohesion (or adhesion) energy Wc: symmetric films adsorbed from 5 mM, DI water
Protocol: The interaction between two surfaces can be measured with nano-Newton level force resolution and Angstrom level resolution in the separation distance between the surfaces. The details of the SFA techniques have been describe in a work by Israelachvili et al. In a typical SFA experiment (FIG. 2C), the distance and the force between the surfaces are measured simultaneously. To begin with, the instrument is calibrated at large separation distances. When the two surfaces are not interacting, i.e., they are separated by large distances, the change in the separation between them is equal to the distance through which the motor moves the lower surface towards or away from the upper surface (or the upper surface driven by the piezo-tube moves towards the lower surface). However, once the surfaces are close enough to start interacting with each other, the measured separation distance deviates from the expected separation calibrated when there is no force between the surfaces. This deviation is due to the deflection of the double cantilever spring and is directly proportional to the force acting normally between the two opposing surfaces. Thus the normal force can be measured using Hooke's law, F=kΔx, where k is the spring constant of the double-cantilever spring and Δx=Dactual−Dapplied is the deflection of the spring, determined by taking the difference between the applied change in position of one of the surfaces Dapplied and the actual change in distance measured between the surfaces Dactual. The actual distance, Dactual, between the surfaces can be measured by multiple beam interferometry (MBI) and will be discussed below.
The distance between the surfaces, shape of the interface and the refractive index of the media between the surfaces can be accurately determined by Multiple Beam Interferometry (MBI) technique. In this technique, white light is directed through two back-silvered mica surfaces (or uniform and same thickness). As a white light passes between the mica surfaces, it undergoes interference due to the optical trap set up by the back silver on each of these surfaces giving rise to discrete wavelengths of light (FIG. 2C). These wavelengths of light are resolved in a spectrometer creating interference fringes known as ‘fringes of equal chromatic order’ (FECO). Since mica is birefringent, the FECO appears as doublets and termed as β and γ. Alternate fringes are termed as odd and even fringes with odd fringes having nodes at the center and even fringes with anti-nodes in the center. The FECO is then recorded on a camera and analyzed to determine the distance between the surfaces using the following equations: […]
The adhesion/cohesion energy of the synthetic zwitterionic molecules was investigated in SFA (SurForce LLC, Santa Barbara, CA). Two molecularly smooth freshly cleaved back silvered mica surfaces glued on cylindrical silica discs of radius of curvature, R˜2 cm, were mounted in the SFA and 50 μL of a colloidal dispersion of the synthetic molecules in DI water were injected between the surfaces at different concentrations (C=0.5-5 mM) and the forces between the thin films of the molecules were measured by Multiple Beam Interferometry (MBI). The adhesion forces between Z-Cat-C10 molecules on various surfaces, e.g., silica and copper, were also measured by AFM (MFP-3D, Asylum research, Goleta, CA) in DI water and ambient conditions, respectively, at room temperature. AFM probes with a silicon dioxide particle (10, 5, and 1 μm, respectively) on a silicon nitride (SN) cantilever-0.6 N m^−1 were purchased from Novascan Technologies, Inc (Ames, IA). Cantilever spring constants were measured for each force run. Images of Z-Cat-C10 coating on silicon wafer and copper plates were visualized in an AFM. […]

Cc1ccc(O)c(O)c1 [4-methylcatechol, reference compound]
E1/2 [1]: ~0.12 V | E1/2 ([1]; listed as methyl catechol): 0.124 V

C=C(C)C(=O)OCCCCCCCCCCOP(=O)(O)O [MDP, 10-methacryloyloxydecyl dihydrogen phosphate, reference compound]
lap shear strength σshear,max [2]: 3.1±0.2 MPa

C=CC(=O)OCc1ccccc1 [P1, Benzyl acrylate, reference compound]
lap shear strength σshear,max [2]: no increase in the lap shear strength | increase in adhesion vs plain mica (no primer) [3]: no increase in adhesion | surface concentration of adsorbed layer [4]: 0 ng/cm^2

C=CC(=O)OCc1ccc(O)cc1 [P2, 4-Hydroxybenzyl acrylate]
lap shear strength σshear,max [2]: no increase in the lap shear strength | increase in adhesion vs plain mica (no primer) [3]: no increase in adhesion | surface concentration of adsorbed layer [4]: 230 ng/cm^2 | mass loss during rinsing ([4]; of initial mass): 60%

CN(C)CCOP(=O)(O)OCCCc1ccccc1 [Z-Ben-C8]
film (hard-wall) thickness ([5]; deposited at 0.5 mM in DI water): 2 nm | hard-wall thickness ([5]; films adsorbed from 5 mM, mica): ~5 nm | cohesion (or adhesion) energy Wc ([5]; mica): without cohesive tendencies

CN(C)CCOP(=O)(O)OCCCc1ccc(O)c(O)c1 [Z-Cat-C4]
cohesion (or adhesion) energy Wc ([5]; mica): 19.2±2.4 mJ m^−2

CN(C)CCOP(=O)(O)OCCCc1ccc(O)c(O)c1 [Z-Cat-C6]
cohesion (or adhesion) energy Wc ([5]; mica): 9.6±1.1 mJ m^−2

CN(C)CCOP(=O)(O)OCCCc1ccc(O)c(O)c1 [Z-Cat-C8]
interaction energy ([5]; 0.5 mM concentration): ~22 mJ m^−2 | cohesion (or adhesion) energy Wc ([5]; mica): 2.5±0.3 mJ m^−2
